Results: the supplement of paper PMC11061612

Assays:
Palbociclib = compound: CC(=O)c1c(C)c2cnc(Nc3ccc(N4CCNCC4)cn3)nc2n(C2CCCC2)c1=O [Palbociclib]; details: max 10 µM
Procedure, shortened: (§1)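 Cancer cell lines were seeded into 1536-well plates in 7.5 μl medium (DMEM/F12 or RPMI, 10% FBS), held 24 hours at 37°C and 5% CO2, and dosed for 72 hours with final DMSO typically 0.2%. Luminescence from CellTiter-Glo 2.0, scaled between blank-well and DMSO-well means, served as viability. The single-agent IC50 was obtained from dose-response fits with a non-linear mixed effects model, each fit being a two-parameter logistic curve.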

Taselisib = compound: Cc1nc(-c2cn3c(n2)-c2ccc(-c4cnn(C(C)(C)C(N)=O)c4)cc2OCC3)n(C(C)C)n1 [Taselisib]; details: max 10 µM
Procedure, shortened: as §1

Prexasertib = compound: COc1cccc(OCCCN)c1-c1cc(Nc2cnc(C#N)cn2)n[nH]1 [Prexasertib]; details: max 1 µM
Procedure, shortened: as §1

AZD1390 = compound: CC(C)n1c(=O)n(C)c2cnc3cc(F)c(-c4ccc(OCCCN5CCCCC5)nc4)cc3c21 [AZD1390]; details: max 0.3 µM
Procedure, shortened: as §1

Crizotinib = compound: C[C@@H](Oc1cc(-c2cnn(C3CCNCC3)c2)cnc1N)c1c(Cl)ccc(F)c1Cl [Crizotinib]; details: max 10 µM
Procedure, shortened: as §1

Paclitaxel = compound: CC(=O)O[C@H]1C(=O)[C@@]2(C)[C@H]([C@H](OC(=O)c3ccccc3)[C@]3(O)C[C@H](OC(=O)[C@H](O)[C@@H](NC(=O)c4ccccc4)c4ccccc4)C(C)=C1C3(C)C)[C@]1(OC(C)=O)CO[C@@H]1C[C@@H]2O [Paclitaxel]; details: max 3 µM
Procedure, shortened: as §1

Alisertib = compound: COc1cc(Nc2ncc3c(n2)-c2ccc(Cl)cc2C(c2c(F)cccc2OC)=NC3)ccc1C(=O)O [Alisertib]; details: max 10 µM
Procedure, shortened: as §1

Doxorubicin = compound: COc1cccc2c1C(=O)c1c(O)c3c(c(O)c1C2=O)C[C@@](O)(C(=O)CO)C[C@@H]3O[C@H]1C[C@H](N)[C@H](O)[C@H](C)O1 [Doxorubicin]; details: max 1 µM
Procedure, shortened: as §1

Carboplatin = compound: C1CC(C1)(C(=O)[O-])C(=O)[O-].N.N.[Pt+2] [Carboplatin]; details: max 10 µM
Procedure, shortened: as §1

Venetoclax = compound: CC1(C)CCC(CN2CCN(c3ccc(C(=O)NS(=O)(=O)c4ccc(NCC5CCOCC5)c([N+](=O)[O-])c4)c(Oc4cnc5[nH]ccc5c4)c3)CC2)=C(c2ccc(Cl)cc2)C1 [Venetoclax]; details: max 1 µM
Procedure, shortened: as §1

Gemcitabine = compound: Nc1ccn([C@@H]2O[C@H](CO)[C@@H](O)C2(F)F)c(=O)n1 [Gemcitabine]; details: max 0.3 µM
Procedure, shortened: as §1

SN-38 = compound: CCc1c2c(nc3ccc(O)cc13)-c1cc3c(c(=O)n1C2)COC(=O)[C@]3(O)CC [SN-38]; details: max 0.3 µM
Procedure, shortened: as §1

SG3199 = compound: CC1=CN2[C@@H](C1)C=NC3=CC(=C(C=C3C2=O)OC)OCCCCCOC4=C(C=C5C(=C4)N=C[C@@H]6CC(=CN6C5=O)C)OC [SG3199]; details: max 0.001 µM
Procedure, shortened: as §1

Gefitinib = compound: COc1cc2ncnc(Nc3ccc(F)c(Cl)c3)c2cc1OCCCN1CCOCC1 [Gefitinib]; details: max 10 µM
Procedure, shortened: as §1

AZD6738 = compound: C[C@@H]1COCCN1C2=NC(=NC(=C2)C3(CC3)[S@](=N)(=O)C)C4=C5C=CNC5=NC=C4 [AZD6738]; details: max 10 µM
Procedure, shortened: as §1

5-Fluorouracil = compound: O=c1[nH]cc(F)c(=O)[nH]1 [5-Fluorouracil]; details: max 20 µM
Procedure, shortened: as §1

AZD5363 = compound: C1CN(CCC1(C(=O)N[C@@H](CCO)C2=CC=C(C=C2)Cl)N)C3=NC=NC4=C3C=CN4 [AZD5363]; details: max 10 µM
Procedure, shortened: as §1

AZD2811 = compound: CCN(CCO)CCCOc1ccc2c(Nc3cc(CC(=O)Nc4cccc(F)c4)[nH]n3)ncnc2c1 [AZD2811]; details: max 1 µM
Procedure, shortened: as §1

AZD1775 = compound: C=CCn1c(=O)c2cnc(Nc3ccc(N4CCN(C)CC4)cc3)nc2n1-c1cccc(C(C)(C)O)n1 [AZD1775]; details: max 3 µM
Procedure, shortened: as §1

[1] = compound: O=C(Nc1ccc2[nH]nc(-c3ccncc3)c2c1)[C@@H]1CCN(CC(=O)N2CCN(c3ccc(-c4ncccn4)cc3)CC2)C1; details: max 5 µM
Procedure, shortened: as §1

AZD4320 = compound: CN(CC[C@H](CSC1=CC=CC=C1)NC2=C(C=C(C=C2)S(=O)(=O)NC(=O)C3=CC=C(C=C3)N4CCC(CC4)[C@H](C5=CC=CC=C5C6=CC=C(C=C6)Cl)O)S(=O)(=O)C(F)(F)F)CCO [AZD4320]; details: max 1 µM
Procedure, shortened: as §1

AZD5991 = compound: Cc1c2c(nn1C)CSCc1cc(n(C)n1)CSc1cc(c3ccccc3c1)OCCCc1c(C(=O)O)n(C)c3c-2c(Cl)ccc13 [AZD5991]; details: max 1 µM
Procedure, shortened: as §1

SRA737 = compound: N#Cc1cnc(Nc2cc(NC[C@H]3CNCCO3)c(C(F)(F)F)cn2)cn1 [SRA737]; details: max 10 µM
Procedure, shortened: as §1

AZD0156 = compound: CN(C)CCCOc1ccc(-c2ccc3ncc4c(c3c2)n(C2CCOCC2)c(=O)n4C)cn1 [AZD0156]; details: max 3 µM
Procedure, shortened: as §1

Lapatinib = compound: CS(=O)(=O)CCNCc1ccc(-c2ccc3ncnc(Nc4ccc(OCc5cccc(F)c5)c(Cl)c4)c3c2)o1 [Lapatinib]; details: max 10 µM
Procedure, shortened: as §1

Etoposide = compound: COc1cc([C@@H]2c3cc4c(cc3[C@@H](O[C@@H]3O[C@@H]5CO[C@@H](C)O[C@H]5[C@H](O)[C@H]3O)[C@H]3COC(=O)[C@H]23)OCO4)cc(OC)c1O [Etoposide]; details: max 10 µM
Procedure, shortened: as §1

Selumetinib = compound: Cn1cnc2c(F)c(Nc3ccc(Br)cc3Cl)c(C(=O)NOCCO)cc21 [Selumetinib]; details: max 10 µM
Procedure, shortened: as §1

Trametinib = compound: CC(=O)Nc1cccc(-n2c(=O)n(C3CC3)c(=O)c3c(Nc4ccc(I)cc4F)n(C)c(=O)c(C)c32)c1 [Trametinib]; details: max 1 µM
Procedure, shortened: as §1

MK-2206 = compound: NC1(c2ccc(-c3nc4ccn5c(=O)[nH]nc5c4cc3-c3ccccc3)cc2)CCC1 [MK-2206]; details: max 10 µM
Procedure, shortened: as §1

AZD8186 = compound: C[C@@H](Nc1cc(F)cc(F)c1)c1cc(C(=O)N(C)C)cc2c(=O)cc(N3CCOCC3)oc12 [AZD8186]; details: max 10 µM
Procedure, shortened: as §1

Savolitinib = compound: C[C@@H](c1ccc2nccn2c1)n1nnc2ncc(-c3cnn(C)c3)nc21 [Savolitinib]; details: max 1 µM
Procedure, shortened: as §1

AZD5153 = compound: COc1nnc2ccc(N3CCC(c4ccc(OCCN5CCN(C)C(=O)[C@H]5C)cc4)CC3)nn12 [AZD5153]; details: max 1 µM
Procedure, shortened: as §1

Olaparib = compound: O=C(c1cc(Cc2n[nH]c(=O)c3ccccc23)ccc1F)N1CCN(C(=O)C2CC2)CC1 [Olaparib]; details: max 10 µM
Procedure, shortened: as §1

Dasatinib = compound: CC1=C(C(=CC=C1)Cl)NC(=O)C2=CN=C(S2)NC3=CC(=NC(=N3)C)N4CCN(CC4)CCO [Dasatinib]; details: max 2 µM
Procedure, shortened: as §1

AZD7648 = compound: Cc1cc2ncnn2cc1Nc1ncc2c(n1)n(C1CCOCC1)c(=O)n2C [AZD7648]; details: max 10 µM
Procedure, shortened: as §1

Cell Line | IC50, cell viability 72 h (Palbociclib) | IC50, cell viability 72 h (Taselisib) | IC50, cell viability 72 h (Prexasertib) | IC50, cell viability 72 h (AZD1390) | IC50, cell viability 72 h (Crizotinib) | IC50, cell viability 72 h (Paclitaxel) | IC50, cell viability 72 h (Alisertib) | IC50, cell viability 72 h (Doxorubicin) | IC50, cell viability 72 h (Carboplatin) | IC50, cell viability 72 h (Venetoclax) | IC50, cell viability 72 h (Gemcitabine) | IC50, cell viability 72 h (SN-38) | IC50, cell viability 72 h (SG3199) | IC50, cell viability 72 h (Gefitinib) | IC50, cell viability 72 h (AZD6738) | IC50, cell viability 72 h (5-Fluorouracil) | IC50, cell viability 72 h (AZD5363) | IC50, cell viability 72 h (AZD2811) | IC50, cell viability 72 h (AZD1775) | IC50, cell viability 72 h [1] | IC50, cell viability 72 h (AZD4320) | IC50, cell viability 72 h (AZD5991) | IC50, cell viability 72 h (SRA737) | IC50, cell viability 72 h (AZD0156) | IC50, cell viability 72 h (Lapatinib) | IC50, cell viability 72 h (Etoposide) | IC50, cell viability 72 h (Selumetinib) | IC50, cell viability 72 h (Trametinib) | IC50, cell viability 72 h (MK-2206) | IC50, cell viability 72 h (AZD8186) | IC50, cell viability 72 h (Savolitinib) | IC50, cell viability 72 h (AZD5153) | IC50, cell viability 72 h (Olaparib) | IC50, cell viability 72 h (Dasatinib) | IC50, cell viability 72 h (AZD7648)
MIA-PaCa-2 (Pancreatic Carcinoma) | > 10000 nM | > 10000 nM | 67.4 nM | > 300 nM | > 10000 nM | 39.5 nM | 3490 nM | 183 nM | > 10000 nM | > 1000 nM | 101 nM | 14.6 nM | > 1 nM | > 10000 nM | 8720 nM | > 20000 nM | > 10000 nM | > 1000 nM | > 3000 nM | 2110 nM | > 1000 nM | > 1000 nM | > 10000 nM | > 3000 nM | > 10000 nM | 2890 nM | 3370 nM | 150 nM | > 10000 nM | > 10000 nM | > 1000 nM | 165 nM | > 10000 nM | > 2000 nM | > 10000 nM
MLMA (Other Blood Carcinomas) | > 10000 nM | 982 nM | 2.19 nM | > 300 nM | 9930 nM | 13.7 nM | 6310 nM | 116 nM | > 10000 nM | 272 nM | 22.8 nM | 16.3 nM | > 1 nM | > 10000 nM | 4310 nM | > 20000 nM | 8830 nM | > 1000 nM | 144 nM | > 5000 nM | > 1000 nM | > 1000 nM | 934 nM | > 3000 nM | > 10000 nM | 2200 nM | > 10000 nM | > 1000 nM | 1760 nM | 2940 nM | > 1000 nM | 55.5 nM | > 10000 nM | 548 nM | > 10000 nM
NB69 (Neuroblastoma) | 491 nM | 487 nM | 89.9 nM | > 300 nM | 2540 nM | 15 nM | 238 nM | 77.2 nM | > 10000 nM | > 1000 nM | 16 nM | 2.16 nM | > 1 nM | > 10000 nM | 3130 nM | 8720 nM | > 10000 nM | 470 nM | 444 nM | 27.2 nM | 226 nM | 201 nM | > 10000 nM | > 3000 nM | 9900 nM | 166 nM | 232 nM | 3.07 nM | > 10000 nM | 7650 nM | > 1000 nM | 37.7 nM | > 10000 nM | 141 nM | > 10000 nM
NCI-H358 (Lung Adenocarcinoma) | > 10000 nM | 3470 nM | 46.6 nM | > 300 nM | > 10000 nM | 28.1 nM | > 10000 nM | > 1000 nM | > 10000 nM | > 1000 nM | > 300 nM | > 300 nM | > 1 nM | > 10000 nM | > 10000 nM | > 20000 nM | > 10000 nM | > 1000 nM | > 3000 nM | > 5000 nM | > 1000 nM | > 1000 nM | > 10000 nM | > 3000 nM | > 10000 nM | > 10000 nM | > 10000 nM | 147 nM | > 10000 nM | > 10000 nM | > 1000 nM | > 1000 nM | > 10000 nM | > 2000 nM | > 10000 nM
NCI-H727 (Other Solid Carcinomas) | > 10000 nM | 2500 nM | 75.9 nM | > 300 nM | > 10000 nM | > 3000 nM | > 10000 nM | > 1000 nM | > 10000 nM | > 1000 nM | > 300 nM | > 300 nM | > 1 nM | > 10000 nM | > 10000 nM | > 20000 nM | > 10000 nM | > 1000 nM | 2600 nM | 833 nM | > 1000 nM | > 1000 nM | > 10000 nM | > 3000 nM | > 10000 nM | > 10000 nM | 1120 nM | 39.2 nM | > 10000 nM | > 10000 nM | > 1000 nM | > 1000 nM | > 10000 nM | > 2000 nM | > 10000 nM
